Results from article PMC6039549, “The Sodium Sialic Acid Symporter From Staphylococcus aureus Has Altered Substrate Specificity” (Frontiers in Chemistry, 2018).

What was measured:
[1] = molecular target: T1, SaSiaT (sodium sialic acid symporter) (Staphylococcus aureus, UniProt A0A0H2XJ46); test: isothermal titration calorimetry (n = […]); microscale thermophoresis gives Kd =[…]; proteoliposome transport KM […]; assay type: binding
T1 construct: gene SAUSA300_0314; recombinant SaSiaT, GFP-tag cleaved with HRV3C protease, purified in DDM
T1 sequence (A0A0H2XJ46 entry or part of it): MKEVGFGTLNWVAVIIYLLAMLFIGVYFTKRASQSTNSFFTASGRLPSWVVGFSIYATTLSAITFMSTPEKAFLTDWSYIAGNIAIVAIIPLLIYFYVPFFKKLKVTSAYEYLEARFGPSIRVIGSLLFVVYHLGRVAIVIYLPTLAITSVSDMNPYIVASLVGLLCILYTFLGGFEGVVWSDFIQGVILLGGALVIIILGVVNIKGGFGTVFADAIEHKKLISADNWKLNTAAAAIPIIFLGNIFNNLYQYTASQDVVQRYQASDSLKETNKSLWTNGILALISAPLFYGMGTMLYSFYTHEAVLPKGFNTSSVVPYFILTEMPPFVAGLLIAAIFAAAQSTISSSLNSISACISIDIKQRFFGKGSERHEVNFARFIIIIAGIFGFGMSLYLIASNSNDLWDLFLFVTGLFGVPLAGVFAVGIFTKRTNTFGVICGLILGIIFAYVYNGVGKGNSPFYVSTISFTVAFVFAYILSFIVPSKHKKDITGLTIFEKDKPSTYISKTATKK

[2] = molecular target: T1, SaSiaT (sodium sialic acid symporter); test: isothermal titration calorimetry (n = […]); microscale thermophoresis gives Kd =[…]; assay type: binding

CC(=O)N[C@H]1[C@H]([C@H](O)[C@H](O)CO)OC(O)(C(=O)O)C[C@@H]1O (some centres unmarked) [Neu5Ac, N-acetylneuraminic acid]
Kd [1]: 106 ± 2 µM

O=C(CO)N[C@H]1[C@H]([C@H](O)[C@H](O)CO)O[C@@](O)(C(=O)O)C[C@@H]1O [Neu5Gc, N-glycolylneuraminic acid]
Kd [2]: 18 ± 2 µM
